From patent US5631246A, “Use of PAF” (The Canadian Red Cross Society, priority 1993, dated 1997)
Like-named read-outs stand apart in the source and are kept apart here.

How the values were obtained:
ECs = assay: Cytotoxicity to ECs by dye exclusion test; format: cell-based, human; conditions: BTP-dioxolane preincubation
Description: (§2) Media with or without thrombin (@5 units/mL) served as positive and negative controls respectively. ECs were incubated for 1, 10, 20 or 30 minutes and 1, 2, 4, 6 and 24 hours in the PAF and thrombin time course studies. The EC conditioned media were recovered, centrifuged to remove any cell debris, and then frozen at -80° C. for a maximum period of 4 weeks prior to analyses.

PAF receptor = PAF receptor (Homo sapiens, UniProt P25105); assay: Effect of PAF receptor antagonist on release of vWf from ECs; conditions: for % Inhibition of vWf release: 10 μM BTP-dioxolane
PAF receptor, sequence (P25105 whole entry): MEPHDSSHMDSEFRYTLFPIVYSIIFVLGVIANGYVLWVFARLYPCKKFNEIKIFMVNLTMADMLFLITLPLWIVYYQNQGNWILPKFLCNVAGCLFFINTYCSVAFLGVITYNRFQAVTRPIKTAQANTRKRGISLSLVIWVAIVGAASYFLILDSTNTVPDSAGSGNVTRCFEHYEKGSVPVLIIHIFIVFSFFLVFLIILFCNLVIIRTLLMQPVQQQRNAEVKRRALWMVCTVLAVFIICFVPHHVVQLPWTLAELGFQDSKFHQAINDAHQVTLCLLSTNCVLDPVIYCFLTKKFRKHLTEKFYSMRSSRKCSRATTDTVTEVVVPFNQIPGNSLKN
Description: as §2
(§3) Endothelial cells (ECs) were harvested from human umbilical cord vein as described by Jaffe et al. ((1973) Culture of Human Endothelial Cells Derived from Umbilical Veins: Identification by Morphologic and Immunologic Criteria, J. Clin. Invest. 52:2745-2756) and modified by Hashemi et al. (1990, supra). Endothelial cells were subcultured in 0.2% (w/v) gelatin-coated, 12-well Linbro™ polystyrene, tissue culture plates (Flow Laboratories, Mississauga, Ontario), then plated at a density of 1-2×10^4 /well and grown to confluence.
(§4) The standard consisted of a pool of plasma from 20 normal individuals previously determined to contain 1 unit of vWf per mL by the procedure of Zimmerman et al. (1977, J. Clin. Invest. 59:984-989). […] For some experiments, the maximum vWf that could be released was determined. Following incubation, the EC conditioned media were recovered and fresh media containing 0.05% (v/v) Tween 20 and 10 μM each of the protease inhibitors D-phenylalanyl-phenylalanyl-arginyl-chloromethyl ketone, D-phenylalanyl-propyl-arginyl-chloromethyl ketone and 1,5-Dansyl-glutamyl-glycyl-arginyl-chloromethyl ketone were added to the EC monolayers of each corresponding well. The cells were freeze-thawed three times and, to assure complete breakdown of the cell membranes as well as the Weibel-Palade bodies, disrupted in a glass homogenizer using a motor-driven teflon pestle. After centrifugation, total vWf concentration was determined in the supernatants.
The following procedure was followed.

endothelial cells (ECs) [1] = assay: vWf release from ECs exposed directly to PAF or thrombin
Description: Synthetic PAF (1-O-alkyl-2-acetyl-sn-glyceryl-3-phosphorylcholine; Sigma #P-9525) prepared from bovine heart lecithin (Demopoulos et al. (1979) J. Biol. Chem. 254: 9355-358) was 99% pure by TLC analysis, HPLC analysis indicated this product consisted of 70% C16 and 13% C18 forms of PAF (Mita et al., (1989) Anal. Biochem. 180:131-135). After removal of chloroform, PAF was resuspended in DMEM/F12 culture medium containing 1% Nutridoma-HU (final protein concentration of 40 μM stock solution). After sonication for 3×1 minute periods, the PAF solution was diluted and used immediately.
Media with or without thrombin (@5 units/mL) served as positive and negative controls respectively. ECs were incubated for 1, 10, 20 or 30 minutes and 1, 2, 4, 6 and 24 hours in the PAF and thrombin time course studies. The EC conditioned media were recovered, centrifuged to remove any cell debris, and then frozen at -80° C. for a maximum period of 4 weeks prior to analyses. […] Where appropriate ECs were preincubated with BTP-dioxolane which was not cytotoxic to the cells as determined by the dye exclusion test.
as §3, §4
In order to examine the responsiveness of ECs to direct PAF exposure, we incubated the monolayers of ECs with 0-300 pico molar (pM) PAF for a period of 4 hours at 37° C. and determined the amount of vWf released into the EC media. […] To determine the time course of PAF effects on vWf release, 300 pM PAF was incubated with monolayers of ECs for 1, 10, 20 and 30 minutes as well as for 1, 2, 4, 6 and 24 hours. […] As a control, the vWf release from thrombin stimulated ECs was also determined (FIG. 5).

endothelial cells (ECs) [2] = assay: PGI2 release from ECs exposed to supernatants of DDAVP-treated monocytes; format: cell-based, human
Description: (§1) Prostaglandins E2, F2a, and I2 (assayed as 6 keto-PGF1a) were assayed using the iodinated or tritiated (for PGF2a) kits purchased from Amersham Canada (Oakville, Ontario). ATP and ADP were assayed using the adenosine-5'-triphosphate bioluminescent kit from Sigma (St. Louis, Mo.). Prior to assay, ADP present in standards or in samples was converted to ATP (Holmsen et al. (1966) Anal. Biochem. 17:456-473; (1972) Anal. Biochem. 46:489-501). Luminescence was measured using a Lumi-Aggregometer (Chrono-Log Corp., Havertown, Pa.).
If the data are expressed as a percentage increase in PGI2 released from ECs exposed to supernatants from DDAVP-treated compared to untreated monocytes, in order to control for variability in the basal response between the various monocyte and EC preparations, a 60% increase in PGI2 release was observed (P<0.05).

endothelial cells = conditions: direct DDAVP treatment; cited from earlier work
monocytes [3] = assay: Cytokine secretion from monocytes (ELISA); format: cell-based, human; conditions: 100 ng DDAVP/mL, 30 min
Excerpt: Cytokines, IL-1β, IL-6, IL-8, TNF-α, GM-CSF, and G-CSF were quantitated by specific ELISA using human recombinant cytokines as standards. The Quantikine™ kits for measuring IL-1β, IL-6, IL-8, TNF-α and G-CSF were purchased from R & D Systems (Minneapolis, Minn.). The GM-CSF assay kit came from Genzyme Corp. (Boston, Mass.). The minimum detectable levels of cytokines were: 4.5 pg/mL (IL-1β), 3.5 pg/mL (IL-6), 4.7 pg/mL (IL-8), 4.8 pg/mL (TNF-α), 11.2 pg/mL (G-CSF) and 10.0 pg/mL (GM-CSF).

monocytes [4] = assay: PAF secretion from monocytes (RIA); format: cell-based, human
Excerpt: In addition, PAF was extracted from the monocyte supernatants and assayed using the following highly specific and sensitive radioimmunoassay. As the most predominant bioactive forms of PAF secreted by monocytes are the C16 and C18 alkyl moieties (Sugiura and Waku, (1987) Platelet-Activating Factor and Related Lipid Mediators, F. Snyder Ed. Plenum Press, N.Y. 55-85; Prescott et al. (1990) Proc. Natl. Acad. Sci. U.S.A. 81:3534-3538), PAF was quantitated using the highly specific and sensitive ^125 I-RIA kit manufactured by NEN Research Products (Du Pont Canada, Mississauga, Ontario, Canada) following extraction of the monocyte supernatants with 5 mL each of methanol and chloroform and 3.5 mL of water per mL of sample. The recovered chloroform layers, dried under nitrogen, were reconstituted in the PAF assay kit buffer prior to analysis. The development, specificity, and sensitivity of this assay for the C16 and C18 forms of PAF have been previously documented (Smal et al. (1989) Molec. Immunol. 26:711-719; (1990) J. Molec. Recognition 3:169-173; (1990) J. Immunol. Methods 128:183-188; (1990) J. Reprod. Fert. 90:419-425). […] Iodinated samples were counted on a Beckman Gamma 5500 counter (Beckman Instruments, Fullerton, Calif.). The 3H-PAF (10 Ci/mmole) and ^125 I-PAF (2200 Ci/mmole) consisted of a 1:1 admixture of the C16 and Cla forms of PAF.
Alternatively, PAF that has previously associated with monocytes following initial secretion may be released again into the supernatant.

endothelial cells (ECs) [5] = assay: vWf release from ECs exposed to supernatants of DDAVP-treated monocytes (vWf releasing factor)
Description: Media with or without thrombin (@5 units/mL) served as positive and negative controls respectively. […] The EC conditioned media were recovered, centrifuged to remove any cell debris, and then frozen at -80° C. for a maximum period of 4 weeks prior to analyses. […] Where appropriate ECs were preincubated with BTP-dioxolane which was not cytotoxic to the cells as determined by the dye exclusion test.
as §3
Following centrifugation at 300×g for 15 minutes at 20° C., the top layer of plasma was recovered and respun at 2,000×g for 15 minutes to provide cell-free autologous plasma. The remaining plasma and buffy coat were resuspended, adjusted to 35 mL per 60 mL volume of whole blood with PBS (Dulbecco's phosphate buffered saline-Gibco BRL), and layered over 12 ml of Histopaque 1077 (Sigma). The MNC recovered by centrifugation at 300×g for 30 minutes were washed 3×in PBS+5% (v/v) fetal calf serum (FCS; Flow Laboratories, McLean, Va.). The cell concentration was adjusted to 5×10^6 /mL in RPMI+5% FCS and then added to the pretreated tissue culture plates described by Hashemi et al. (1990, supra).
The method of Freundlich and Avdolomic (1983, Use of Gelatin/Plasma Coated Flasks for Isolating Human Peripheral Blood Monocytes, J. Immunol. Methods, 62:31-37) as modified by Hashemi et al. (1990, supra) was used to purify monocytes from mononuclear cells. The mononuclear cell suspension (5×10^6 cells/mL) was incubated for 18-20 hours at 37° C. in a CO2 incubator. The monocytes were harvested with 10 mM EDTA (Gibco Laboratories) in RPMI+5% FCS and following centrifugation were washed 3×in media and resuspended in serum-free medium (DMEM/F12, Gibco) containing 1% Nutridoma-HU (Boehringer-Mannheim Canada, Laval, Quebec). The recovered cells met morphological criteria for monocytes and were 90% positive for monocyte CD14 surface marker determined by direct immunofluorescence using fluorescent conjugated anti-Leu-M3 (CD14) monoclonal antiserum (Becton-Dickinson, Mountain View, Calif.). Cell viability was greater than 90% as determined by trypan blue dye exclusion (Gibco). […] Cell suspensions were incubated in sterile Petri dishes, previously coated with 2% gelatin for 1 hour at 37° C., for 30-minutes or for 1, 2, 4, 6 and 24 hours. Monocyte-conditioned media were centrifuged at 2,000×g for 15 minutes and frozen at -80° C. prior to incubation with the EC monolayer cultures. For some experiments, conditioned media were lipid extracted as described prior to the PAF radioimmunoassay below. The dried extracts were reconstituted with fresh DMEM/F12+1% Nutridoma-HU media, briefly sonicated and added to EC cultures.

[6] = tested on: von Willebrand factor and factor VIII; conditions: cited from earlier work
monocytes [7] = assay: Secretion of prostaglandins and adenine nucleotides from monocytes; format: cell-based, human; conditions: 100 ng DDAVP/mL, 30 min
Description: as §1

COc1cc([C@H]2OC[C@H](c3cc(OC)c(OC)c(OC)c3)O2)cc(OC)c1OC (racemic) [BTP-dioxolane]
cytotoxicity to ECs (ECs): not cytotoxic | % Inhibition of vWf release (PAF receptor; supernatants from monocytes treated with 100 ng DDAVP/mL, P <0.001): 82% | % Inhibition of vWf release (PAF receptor; supernatants from untreated monocytes (DDAVP 0 ng/mL), P <0.005): 68% | % Inhibition of vWf release (PAF receptor; thrombin 5 U/mL, P <0.025): 15% | inhibition of the PAF-dependent release of vWf (PAF receptor; preincubated 10 minutes with ECs, final concentration 10 μM): effective inhibition of the PAF-dependent release of vWf | inhibition at 10 µM (PAF receptor; read-out: % Inhibition of vWf release, 10 μM BTP-dioxolane, PAF 100 pM, P <0.001): 74.7 ± 4% | inhibition at 10 µM (PAF receptor; read-out: % Inhibition of vWf release, 10 μM BTP-dioxolane, PAF 300 pM, P <0.005): 83.2 ± 11% | inhibition at 10 µM (PAF receptor; read-out: % Inhibition of vWf release, 10 μM BTP-dioxolane, supernatants from monocytes treated with 100 ng DDAVP/mL, P <0.001): 81.8 ± 7% | inhibition at 10 µM (PAF receptor; read-out: % Inhibition of vWf release, 10 μM BTP-dioxolane, supernatants from untreated monocytes (DDAVP 0 ng/mL), P <0.005): 68.4 ± 10.4% | inhibition at 10 µM (PAF receptor; read-out: % Inhibition of vWf release, 10 μM BTP-dioxolane, thrombin 5 U/mL, P <0.025): 14.7 ± 4% | inhibition at 10 µM (PAF receptor; read-out: inhibition of the effects of PAF on vWf release from ECs, BTP-dioxolane 10 μM, 100 pM or 300 pM PAF): 75 to 83%

Thrombin
Increase in vWf release (%), BTP-dioxolane absent (endothelial cells (ECs) [1]; thrombin 5 U/mL, 4 hours, n=5): 123.5 ± 11.3% | vWf release from ECs (optimal effect) (endothelial cells (ECs) [1]; thrombin (5 units/mL), 10 minutes, P<0.001): 368% | vWf release from ECs (endothelial cells (ECs) [1]; thrombin (5 units/mL), 30 minutes): 261% | vWf release from ECs (endothelial cells (ECs) [1]; thrombin (5 units/mL), 1 hour): 137% | vWf release from ECs (endothelial cells (ECs) [1]; thrombin (5 units/mL), 24 hours): 88%

NC(=O)CC[C@@H]1NC(=O)[C@H](Cc2ccccc2)NC(=O)[C@H](Cc2ccc(O)cc2)NC(=O)CCSSC[C@@H](C(=O)N2CCC[C@H]2C(=O)N[C@H](CCCN=C(N)N)C(=O)NCC(N)=O)NC(=O)[C@H](CC(N)=O)NC1=O [DDAVP, 1-deamino-8-D-arginine vasopressin]
increase in PGI2 release from ECs (endothelial cells (ECs) [2]; DDAVP-treated compared to untreated monocyte supernatants, P<0.05): 60% | PGI2 release from ECs (endothelial cells (ECs) [2]; supernatants from DDAVP-treated monocytes, cf. 332±107 untreated, corrected for PGI2 in supernatants): 538 ± 136 pg/mL | secretion of vWf by endothelial cells in vitro (endothelial cells): no increased secretion of vWf | TNF-α secreted (monocytes [3]; n=6, N.S. vs 0 ng/mL: 4 ± 3): 0 ± 0 pg/mL | IL-6 secreted (monocytes [3]; n=6, N.S. vs 0 ng/mL: 23 ± 9): 26 ± 2 pg/mL | IL-1β secreted (monocytes [3]; n=6, N.S. vs 0 ng/mL: 319 ± 118): 271 ± 93 pg/mL | IL-8 secreted (monocytes [3]; n=12, N.S. vs 0 ng/mL: 690 ± 257): 639 ± 214 pg/mL | time course of PAF in monocyte supernatants (monocytes [4]; 100 ng DDAVP/mL vs unstimulated, at any point in time, 30 min to 24 h, FIG. 7A): higher levels of PAF present in post-DDAVP monocyte supernatants | time course of PAF secretion from monocytes (monocytes [4]; 100 ng DDAVP/mL, 2-4 hours, FIG. 7A): declined sharply | time course of PAF secretion from monocytes (monocytes [4]; 100 ng DDAVP/mL, 6 hours, FIG. 7A): increased again | time course of PAF secretion from monocytes (monocytes [4]; 100 ng DDAVP/mL, 24 hours, FIG. 7A): still elevated | DDAVP concentration of maximum PAF secretion from monocytes (monocytes [4]; 30 minutes exposure, (169 nM)): 200 ng DDAVP/mL | ED50 for PAF secretion from monocytes (monocytes [4]; 30 minutes, estimated): 85 ng DDAVP/mL | PAF release from monocytes (monocytes [4]; FIG. 1B, 100 ng DDAVP/mL, 30 min, cf. 94 pM untreated, P<0.001): 284 pM | maximum PAF secretion from monocytes (monocytes [4]; at 200 ng DDAVP/mL (169 nM), 30 minutes): 480 fmol/mL | vWf release from ECs (endothelial cells (ECs) [5]; FIG. 1A, supernatants from monocytes with 100 ng DDAVP/mL 30 min, ECs 4 hours, n=26, cf. 104% untreated, P<0.001): 186% | enhancement of vWf release from ECs by lipid extracts of supernatants (endothelial cells (ECs) [5]; FIG. 3, DDAVP-treated monocytes (100 ng/mL), reconstituted lipid extract, n=7, cf. 71% untreated, P<0.05): 195% | vWf releasing factor (%) (endothelial cells (ECs) [5]; Table 1, IL-1β to G-CSF set, monocytes with 100 ng DDAVP/mL 30 min, ECs 4 hours, n=6, P <0.05 vs 0 ng/mL: 131 ± 15): 234 ± 35% | vWf releasing factor (%) (endothelial cells (ECs) [5]; Table 1, IL-8 set, 100 ng DDAVP/mL 30 min, ECs 4 hours, n=12, P <0.05 vs 0 ng/mL: 147 ± 29): 291 ± 58% | vWf releasing factor (%) (endothelial cells (ECs) [5]; Table 2, ATP/ADP set, 100 ng DDAVP/mL 30 min, ECs 4 hours, n=6, P <0.025 vs 0 ng/mL: 99 ± 17): 211 ± 33% | vWf releasing factor (%) (endothelial cells (ECs) [5]; Table 2, PGE2/PGF2α set, 100 ng DDAVP/mL 30 min, ECs 4 hours, n=10, P <0.01 vs 0 ng/mL: 122 ± 16): 307 ± 62% | vWf releasing factor (%) (endothelial cells (ECs) [5]; Table 2, PGI2 set, 100 ng DDAVP/mL 30 min, ECs 4 hours, n=9, P <0.05 vs 0 ng/mL: 153 ± 35): 347 ± 66% | time course of vWf release from ECs (endothelial cells (ECs) [5]; supernatants from DDAVP-stimulated vs unstimulated monocytes, except at 2 hours, FIG. 7B): consistently higher levels of vWf released | DDAVP concentration of maximum vWf release from ECs (endothelial cells (ECs) [5]; supernatants from DDAVP-treated monocytes, ECs 4 hours): 100 ng DDAVP/mL | ED50 for vWf release from ECs (endothelial cells (ECs) [5]; supernatants from DDAVP-treated monocytes, ECs 4 hours, estimated): 45 ng DDAVP/mL | Increase in vWf release (%), BTP-dioxolane absent (endothelial cells (ECs) [5]; supernatants from monocytes treated with 100 ng DDAVP/mL 30 min, ECs 4 hours, n=5, 0 ng/mL: 92.6 ± 14.7%): 197.2 ± 22.8% | vWf release from ECs, dose response (endothelial cells (ECs) [5]; supernatants from monocytes with 10-800 ng DDAVP/mL, ECs 4 hours at 37° C.): significant increases in vWf release were observed at all concentrations tested | plasma concentration of von Willebrand factor and factor VIII in vivo ([6]; Mannucci et al.): causes an increase in the plasma concentration | plasma concentration of von Willebrand factor and factor VIII ([6]; patients with mild or moderate haemophilia A or von Willebrand disease and normal individuals): increase the plasma concentration | effect on secretion of PGE2, PGF2a, PGI2, ATP or ADP from monocytes (monocytes [7]): no significant effect | ADP secreted (monocytes [7]; n=5, N.S. vs 0 ng/mL: 16.8 ± 5.5): 17.6 ± 12.2 nM | PGF2α secreted (monocytes [7]; n=5, N.S. vs 0 ng/mL: 333 ± 116): 406 ± 124 pg/mL | ATP secreted (monocytes [7]; n=6, N.S. vs 0 ng/mL: 10.3 ± 6.6): 7.4 ± 4.4 nM | PGI2 secreted (monocytes [7]; n=9, N.S. vs 0 ng/mL: 106 ± 17): 107 ± 18 pg/mL | PGE2 secreted (monocytes [7]; n=10, N.S. vs 0 ng/mL: 3.61 ± 0.80): 4.37 ± 1.70 pg/mL
